IC50 data for six compounds are collected here from BindingDB's records for doi:10.1111/cbdd.12713 (Novartis Institutes of Biomedical Research Institute, 2016).

Broadly, the IC50 is the midpoint of a concentration-inhibition curve. Read a low IC50 as greater potency.

This test deals with T1, Aquaporin-1 (Homo sapiens, UniProt P29972).
T1 sequence (P29972 whole entry): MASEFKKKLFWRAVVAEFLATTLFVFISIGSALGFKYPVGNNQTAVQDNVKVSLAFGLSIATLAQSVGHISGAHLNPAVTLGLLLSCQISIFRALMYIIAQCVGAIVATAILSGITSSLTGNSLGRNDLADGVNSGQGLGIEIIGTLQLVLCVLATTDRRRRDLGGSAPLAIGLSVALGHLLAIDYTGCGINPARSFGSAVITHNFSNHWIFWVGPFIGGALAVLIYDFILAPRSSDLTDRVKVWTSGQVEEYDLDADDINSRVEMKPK
In words: Stopped-flow Assay. On the procedure:
Osmotic water permeability was measured at 22-24 °C bymonitoring 90° scattered light intensity at 520 nm wavelength. Measurements were made using a PiStar 180 (Applied Photophysics, UK), with a dead time of 1-2 milliseconds. Thirty minutes prior to the assay, stripped red blood cell ghosts or proteoliposomes containing purified AQP1 and stored in ice were treated with mercuric chloride (50-100 µM; positive control for inhibition) or with the various compounds usually at a concentration of 150 µM. Stock solutions of compounds were in 100% ethanol (for stripped erythrocyte membrane experiments) and in 100% DMSO (for proteoliposome experiments). An inwardly directed osmotic gradient (hyperosmotic shock) was created by mixing the vesicles maintained in Buffer A (50 mM sodium phosphate buffer pH, 100 mM NaCl, 1 mM EDTA, 0.025% sodium azide) with an equal volume of 200 mM mannitol. On the other hand, vesicles preincubated with 200 mM mannitol were mixed with Buffer A to create an outwardly
In the case of `Nc1nc(NC[C@H]2CC[C@H](CNS(=O)(=O)c3ccc4ccccc4c3)CC2)nc2ccccc12`, the IC50 was 3.9 µM.

`Nc1nc(NC[C@H]2CC[C@H](CNS(=O)(=O)c3cccc4c(Cl)cccc34)CC2)nc2ccccc12` [5-chloro-N-{[(1r,4r)-4-{[(4-aminoquinazolin-2-yl)amino]methyl}cyclohexyl]methyl}naphthalene-1-sulfonamide (Compound 3)] registered a half-maximal inhibitory concentration (IC50) of 5.8 µM. Then `CNCC1Cc2cc(F)cc(-c3c(Cl)cccc3Cl)c2O1` (stereo unspecified) [{[7-(2,6-dichlorophenyl)-5-fluoro-2,3-dihydro-1-benzofuran-2-yl]methyl}(methyl)amine (Compound 6)], with 29.4 µM; and `CNCC1Cc2cc(F)cc(-c3ccc(Cl)cc3Cl)c2O1` (stereo unspecified) [{[7-(2,4-dichlorophenyl)-5-fluoro-2,3-dihydro-1-benzofuran-2-yl]methyl}(methyl)amine (Compound 4)], with 9.8 µM; and `Nc1nc(NC[C@H]2CC[C@H](CNS(=O)(=O)c3cccc4ccccc34)CC2)nc2ccccc12` [CGP 71683], with 2.7 µM. Then `NCC1Cc2cc(F)cc(-c3ccc(Cl)cc3Cl)c2O1` (stereo unspecified) [[7-(2,4-dichlorophenyl)-5-fluoro-2,3-dihydro-1-benzofuran-2-yl]methanamine (Compound 5)], with 15.2 µM.
